Where “and” joins values, the source holds several entries; their conditions need not be identical. Equal entries are not always repeated. Where two headings read alike, the source gives them in different places.
Experiments:
Assay type in all cases: cell-based
[1] = system: Calu-3 cell line; experiment: Synergy effect study on cell proliferation (Example 2), single agents and 6x6 combo matrix; conditions: Calu-3, single compound; for Max inh. / IC50: 3 days
Method: (§1) Cells were seeded in a 96-well plate at 4 to 15×10^3 cells/well. Approximately 24 hours after plating, cells were exposed to ten, two-fold or three fold serial dilutions of test individual compounds or the combination of the two test compounds at a constant molar to molar ratio or non-constant ratio of two agents. Cells were incubated in the presence of compounds for 3 days.
(§2) Inhibition of cell growth was estimated after treatment with test agent or combination of test agents for incubating time (2-3 days) and comparing the signal to cells treated with vehicle (DMSO). Cell growth (%) was calculated by following equations.
(§3) Percentage growth inhibition was calculated using both Bliss independence model and Lowewe additivity model. A score higher than 5 indicates synergy and a score less that −5 indicates antagonism.

[2] = system: BT-474 cell line; experiment: as above; conditions: BT-474, single compound; for Max inh. / IC50: 3 days
Method: as §1, §2, §3

[3] = system: BT-474 cells; experiment: Cell growth inhibition assay (sulforhodamine B), single agents and combinations; conditions: BT-474, single agent, 3 days
Method: (§4) The effect of the inventive compositions on the cancer cell growth inhibition was conducted in EGFR-overexpressed or -mutated cancer cell lines.
(§5) All cells except for H1975 were cultured for 72 hours prior to cell plating. Cells were seeded in a 96-well plate at 4 to 15×10^3 cells/well. Approximately 24 hours after plating, cells were exposed to ten, two-fold or three fold serial dilutions of test individual compounds or the combination of the two test compounds at a constant molar to molar ratio or non-constant ratio of two agents. Cells were incubated in the presence of compounds for 3 days except for H1975, which was for 2 days at 3×10^3 cells/well.
(§6) Cell growth inhibition based on measurement of cellular protein content is determined by sulforhodamine B colorimetric assay according to the “Nat Protoc. […] The absorbance was read on a SpectraMax™ plate reader at 540 nm. For H1975 cells, cell growth (%) is determined by adding CellTiter™ 96 Aqueous One Solution Cell Proliferation Assay reagent (Promega) according to the manufacturer's protocol.
as §2
(§7) Percentage growth inhibition was calculated using:
(§8) a. [(Ti−Tz)/(C−Tz)]×100, for concentrations for which Ti=Tz
(§9) b. [(Ti−Tz)/Tz]×100, for concentrations for which Ti<Tz
(§10) Each T value means an absorbance. Tz: Time zero (cell density group before the treatment of test group), C:100% control growth […] test agent, Ti: Test growth in the presence of drug at the concentration levels.
(§11) Combination effects on potency were evaluated by combination Index using Calcusyn™ Software. The range of Combination Index (CI) for two compounds is described in Table 2.
(§12) Fifty percent growth inhibition values (GI50) for combinations of poziotinib with partner drugs were calculated and the single dosing growth inhibition (%) at the dose of combo GI50 were also calculated by using GraphPad Prism™ v6. The combination Index (CI) at the dose of combination GI50 was evaluated by using CalcuSyn™ (Biosoft).

[4] = system: MCF-7 cells; experiment: as above; conditions: Homo sapiens, MCF7, 72 h; MCF-7, single agent, 3 days
Method: as §4, §5, §6, §2, §7, §8, §9, §10, §11, §12

[5] = system: SK-BR-3 cells; experiment: as above; conditions: Homo sapiens, SK-BR-3, 72 h; SK-BR3, single agent, 3 days
Method: as §4, §5, §6, §2, §7, §8, §9, §10, §11, §12

[6] = system: MDA-MB-468 cells; experiment: as above; conditions: Homo sapiens, 72 h; MDA-MB-468, single agent, 3 days
Method: as §4, §5, §6, §2, §7, §8, §9, §10, §11, §12

[7] = system: MDA-MB-361 cells; experiment: as above; conditions: Homo sapiens, 72 h; MDA-MB-361, single agent, 3 days
Method: as §4, §5, §6, §2, §7, §8, §9, §10, §11, §12

[8] = system: H1975 cells; experiment: Cell growth inhibition assay (CellTiter 96 Aqueous One), single agents and combinations; conditions: H1975, single agent, 2 days
Method: as §4, §5, §6, §2, §7, §8, §9, §10, §11, §12

[9] = system: HCC827 cells; experiment: Cell growth inhibition assay (sulforhodamine B), single agents and combinations; conditions: HCC827, single agent, 3 days
Method: as §4, §5, §6, §2, §7, §8, §9, §10, §11, §12

[10] = system: MDA-MB-453 cells; experiment: as above; conditions: MDA-MB-453, single agent, 3 days
Method: as §4, §5, §6, §2, §7, §8, §9, §10, §11, §12

[11] = system: SK-BR-3 cell line; experiment: Synergy effect study on cell proliferation (Example 2), single agents and 6x6 combo matrix; conditions: SK-BR-3, single compound, 3 days
Method: In this example, effects of direct cell killing of selected cancer cell line Calu-3, BT-474 and SK-BR-3 treated with Poziotinib alone or in combination with other agents were assessed.
All cells were cultured in the media listed in the temperature of 37° C., 5% CO2 and 95% humidity. Cells were seeded in a 96-well plate at 4 to 15×10^3 cells/well. Approximately 24 hours after plating, cells were exposed to ten, two-fold or three fold serial dilutions of test individual compounds or the combination of the two test compounds at a constant molar to molar ratio or non-constant ratio of two agents. Cells were incubated in the presence of compounds for 3 days.
as §2, §3
Calu-3, BT-474 or SK-BR-3 cell lines were tested with Poziotinib combined with a second compound respectively in a 6×6 combo matrix for 3 days at 37° C., 5% CO2 and 95% humidity as shown in combinations shown in the tables herein below: […]

[12] = system: N87 cells; experiment: Cell growth inhibition assay (sulforhodamine B), single agents and combinations; conditions: 72 h; N87, single agent, 3 days
Method: as §4, §5, §6, §2, §7, §8, §9, §10, §11, §12

[13] = system: TE-4 cells; experiment: as above; conditions: 72 h; TE-4, single agent, 3 days
Method: The effect of the inventive compositions on the cancer cell growth inhibition was conducted in EGFR-overexpressed or -mutated cancer cell lines. […] All cells except for H1975 were cultured for 72 hours prior to cell plating. […] Approximately 24 hours after plating, cells were exposed to ten, two-fold or three fold serial dilutions of test individual compounds or the combination of the two test compounds at a constant molar to molar ratio or non-constant ratio of two agents. Cells were incubated in the presence of compounds for 3 days except for H1975, which was for 2 days at 3×10^3 cells/well. Cell growth inhibition based on measurement of cellular protein content is determined by sulforhodamine B colorimetric assay according to the “Nat Protoc. […] The absorbance was read on a SpectraMax™ plate reader at 540 nm. For H1975 cells, cell growth (%) is determined by adding CellTiter™ 96 Aqueous One Solution Cell Proliferation Assay reagent (Promega) according to the manufacturer's protocol. […] Cell growth (%) was calculated by following equations. Percentage growth inhibition was calculated using: a. […] [(Ti−Tz)/Tz]×100, for concentrations for which Ti<Tz Each T value means an absorbance. […] Combination effects on potency were evaluated by combination Index using Calcusyn™ Software. […] The combination Index (CI) at the dose of combination GI50 was evaluated by using CalcuSyn™ (Biosoft).

[14] = Homo sapiens, Calu-3, 72 h, read-out: IC50

Work on CNC(=O)c1cc(Oc2ccc(NC(=O)Nc3ccc(Cl)c(C(F)(F)F)c3)cc2)ccn1 [Sorafenib] yielded a Max inh. [1] of 64.29% and an IC50 [1, 14] of 4480 nM.

In the case of N#Cc1ccc(C(c2ccc(C#N)cc2)n2cncn2)cc1 [Letrozole], the “cell inhibitory activity (in words)” value [2] is reported as “weak or no response”, the Max inh. [2] is reported as −15.80% and the IC50 ([2]; Homo sapiens, 72 h) is reported as over 10000 nM.

In the case of CC(=O)c1c(C)c2cnc(Nc3ccc(N4CCNCC4)cn3)nc2n(C2CCCC2)c1=O [Palbociclib], the Max inh. [2] is reported as 12.13% and the IC50 ([2]; Homo sapiens, 72 h) is reported as over 5000 nM.

Compound CO[C@H]1C[C@@H]2CC[C@@H](C)[C@@](O)(O2)C(=O)C(=O)N2CCCC[C@H]2C(=O)O[C@H]([C@H](C)C[C@@H]2CC[C@@H](OC(=O)C(C)(CO)CO)[C@H](OC)C2)CC(=O)[C@H](C)/C=C(\C)[C@@H](O)[C@@H](OC)C(=O)[C@H](C)C[C@H](C)/C=C/C=C/C=C/1C [Temsirolimus] has a Max inh. [1] of 58.19% and an IC50 [1, 14] of 167 nM.

Work on CCC1=C[C@@H]2CN(C1)Cc1c([nH]c3ccccc13)[C@@](C(=O)OC)(c1cc3c(cc1OC)N(C)[C@H]1[C@@](O)(C(=O)OC)[C@H](OC(C)=O)[C@]4(CC)C=CCN5CC[C@]31[C@@H]54)C2 [Vinorelbine] yielded a GI50 ([3]; Homo sapiens, BT-474, 72 h) of 2.3 nM, a GI50 [4] of 3.6 nM and a GI50 [5] of 1.7 nM. The GI50 [6] was 0.3 nM and the GI50 [7] was 1.1 nM.

For CC(=O)O[C@H]1C(=O)[C@@]2(C)[C@H]([C@H](OC(=O)c3ccccc3)[C@]3(O)C[C@H](OC(=O)[C@H](O)[C@@H](NC(=O)c4ccccc4)c4ccccc4)C(C)=C1C3(C)C)[C@]1(OC(C)=O)CO[C@@H]1C[C@@H]2O [Paclitaxel], the GI50 ([8]; Homo sapiens, NCI-H1975, 48 h) was 21.6 nM, the GI50 ([3]; Homo sapiens, BT-474, 72 h) was 1 nM and the GI50 ([9]; Homo sapiens, 72 h) was 3.4 nM. The GI50 ([10]; Homo sapiens, MDA-MB-453, 72 h) was 3 nM.

For CC(=O)Nc1cccc(-n2c(=O)n(C3CC3)c(=O)c3c(Nc4ccc(I)cc4F)n(C)c(=O)c(C)c32)c1 [Trametinib], the Max inh. [2] was 15.91%, the IC50 ([2]; Homo sapiens, 72 h) was over 10000 nM and the Max inh. [1] was 89.69%. The IC50 [1, 14] was 42 nM.

In the case of N.N.[Cl][Pt][Cl] [Cisplatin], the IC50 [11] is reported as 549 nM, the Max inh. [11] is reported as 98.11% and the GI50 [8] is reported as over 10000 nM. For the same compound, the IC50 [2] was over 100000 nM, the Max inh. [2] was 41.78% and 37.43% and the Max inh. [1] was 59.75% and 69.39% and 68.77%. It also gave a GI50 [3] of over 20000 nM, a GI50 [9] of over 20000 nM and a GI50 [10] of over 10000 nM.

Nc1nc2[nH]cc(CCc3ccc(C(=O)N[C@@H](CCC(=O)O)C(=O)O)cc3)c2c(=O)[nH]1 [Pemetrexed] was tested, and the “cell inhibitory activity (in words)” value [2] was “not effective”, the Max inh. [2] was 1.78% and the IC50 ([2]; Homo sapiens, 72 h) was over 10000 nM. For the same compound, the “cell inhibitory activity (in words)” value [1] was “not effective”, the Max inh. [1] was 49.78% and the IC50 [1, 14] was over 10000 nM.

Compound ado-trastuzumab emtansine [T-DM1] has a Max inh. [11] of 85.37%, an IC50 [1] of 90.449 µg/mL and a Max inh. [1] of 55.24%.

Work on C=CC(=O)N1CCC(Oc2cc3c(Nc4ccc(Cl)c(Cl)c4F)ncnc3cc2OC)CC1 [Poziotinib, 1-[4-[4-(3,4-dichloro-2-fluoroanilino)-7-methoxyquinazolin-6-yl]oxypiperidin-1-yl]prop-2-en-1-one] yielded an IC50 ([11]; Homo sapiens, 72 h) of 1 nM, a Max inh. [11] of 57.81% and a GI50 [8] of 1.3 nM. The Max inh. [2] was 71.74%, the IC50 ([2]; listed as Pozotinb) was under 1.5 nM and the Max inh. ([2]; listed as Pozotinb) was 68.16%. For the same compound, the IC50 ([2]; Homo sapiens, 72 h) was under 1.5 nM, the Max inh. [1] was 94.51% and 81.67% and the Max inh. ([1]; listed as Pozotinb) was 89.22%. The GI50 ([3]; Homo sapiens, BT-474, 72 h) was 0.5 nM, the GI50 [4] was 2740 nM and the GI50 [5] was 0.9 nM. For the same compound, the GI50 ([9]; Homo sapiens, 72 h) was 0.4 nM, the GI50 ([10]; Homo sapiens, MDA-MB-453, 72 h) was 2.5 nM and the GI50 [6] was 640 nM. For the same compound, the GI50 [12] was 0.1 nM, the GI50 [7] was 21 nM and the GI50 [13] was 0.8 nM.

In the case of O=c1[nH]cc(F)c(=O)[nH]1 [5-FU, Fluorouracil], the GI50 ([8]; Homo sapiens, NCI-H1975, 48 h) is reported as over 10000 nM, the GI50 ([3]; Homo sapiens, BT-474, 72 h) is reported as 9000 nM and the GI50 ([9]; Homo sapiens, 72 h) is reported as 980 nM. The GI50 ([10]; Homo sapiens, MDA-MB-453, 72 h) was 385 nM and the GI50 [13] was 7900 nM.

Reference: patent publication US20210145834A1, “COMBINATION OF POZIOTINIB WITH CYTOTOXIC AGENT AND/OR OTHER MOLECULARLY TARGETED AGENT AND USE THEREOF” (Spectrum Pharmaceuticals, Inc., priority 2018, published 2021)
